Measured values as given in ChEMBL document CHEMBL1124125, “6-(Alkylamino)-3-aryl-1,2,4-triazolo[3,4-a]phthalazines. A new class of benzodiazepine receptor ligands” (J Med Chem, 1988).

What was measured:
[1] = molecular target: T1, GABA-A receptor; anion channel (Rattus norvegicus) (UniProt O09028+P15431+P18506+P18508+P19969+P20236+P23574+P23576+P28471+P28473+P30191+P62813+P63079+P63138+Q91ZM7+Q9ES14); experiment: Relative inhibition of [3H]diazepam binding to GABA-A receptor of rat forebrain in the presence and absence of GABA(10e-4M)
[2] = molecular target: GABA-A receptor; anion channel; experiment: Inhibition of [3H]diazepam binding to GABA-A central benzodiazepine receptor of rat brain homogenate
Mus musculus [3] = experiment: Dose that prevented tonic extensor seizures and death in 50% of the mice.(ip); assay type: functional
[4] = Lethal dose when given intraperitoneally in mice; assay type: toxicity, organism-based; conditions: mouse, in vivo, ip
Mus musculus [5] = experiment: Inhibition of Anti-pentylenetetrazole-induced convulsions in mice following i.p. administration.; assay type: functional; conditions: ip
[6] = molecular target: T1, GABA-A receptor; anion channel (Rattus norvegicus); experiment: GABA ratio (IC50/IC50 in the presence of 10e-4 GABA).; assay type: protein-complex assay
Mus musculus [7] = experiment: Antagonism of Diazepam muscle relaxant effect by compound (30 mg/kg, ip) was measured as the ratio of fallen/treated mice.; assay type: functional
Mus musculus [8] = experiment: Antagonism of Diazepam muscle relaxant effect by compound (10 mg/kg, ip) was measured as the ratio of fallen/treated mice.; assay type: functional
Mus musculus [9] = experiment: (§1) Anticonvulsant activity of the compound when lethal dose of strychnine given subcutaneously in mouse; assay type: ADME, organism-based; conditions: in vivo, sc
Mus musculus [10] = experiment: Activity was measured by rotarod test by intraperitoneal administration in mouse.; assay type: functional; conditions: ip
Mus musculus [11] = organism: Mus musculus; experiment: Anticonvulsant activity of the compound when maximal electroshock is induced in mouse; assay type: functional
Rattus norvegicus [12] = experiment: Minimal effective dose (MED, ip) that significantly increased the number of shocks (anticonflict); assay type: functional; conditions: read-out: MED
Mus musculus [13] = experiment: Anticonvulsant activity of the compound when bicuculline given subcutaneously in mouse; assay type: functional; conditions: sc
Mus musculus [14] = experiment: Effective dose on mouse for motility after intraperitoneal administration.; assay type: functional
Mus musculus [15] = experiment: Effective dose on mouse for body tone after intraperitoneal administration.; assay type: functional
Mus musculus [16] = experiment: Minimal effective dose on mouse for mortality after intraperitoneal administration.(1/3 animals died); assay type: functional; conditions: ip, read-out: MED
Mus musculus [17] = experiment: Minimal effective dose on mouse for motility after intraperitoneal administration.; assay type: functional; conditions: ip, read-out: MED
Rattus norvegicus [18] = experiment: Minimal effective dose on rat for mortality after intraperitoneal administration. (1/3 animals died); assay type: functional; conditions: ip, read-out: MED
Rattus norvegicus [19] = experiment: Activity was measured by rotarod test by peroral administration in rat; assay type: functional; conditions: po
Rattus norvegicus [20] = experiment: Minimal effective dose on rat for motor coordination after intraperitoneal administration.; assay type: functional; conditions: ip, read-out: MED
Rattus norvegicus [21] = experiment: Effective dose on rat for motor coordination after intraperitoneal administration.; assay type: functional
Rattus norvegicus [22] = experiment: Effective dose on rat for body tone after intraperitoneal administration.; assay type: functional
Mus musculus [23] = experiment: Minimal effective dose on mouse for motor coordination after intraperitoneal administration.; assay type: functional; conditions: ip, read-out: MED
Rattus norvegicus [24] = experiment: Conditioned Avoidance response activity (CR2) at 20 mg/kg (i.p.) (No. of rats with blocked response/No. of treated rats); assay type: functional; conditions: route intraperitoneal
Rattus norvegicus [25] = experiment: Effective dose on rat for motility after intraperitoneal administration.; assay type: functional
Rattus norvegicus [26] = experiment: Minimal effective dose on rat for body tone after intraperitoneal administration.; assay type: functional; conditions: ip, read-out: MED
Rattus norvegicus [27] = experiment: Conditioned Avoidance response activity (CR2) at 10 mg/kg (i.p.) (No. of rats with blocked response/No. of treated rats); assay type: functional; conditions: route intraperitoneal
Mus musculus [28] = experiment: Minimal effective dose on mouse for body tone after intraperitoneal administration.; assay type: functional; conditions: ip, read-out: MED
Mus musculus [29] = experiment: as §1; assay type: functional; conditions: sc
Rattus norvegicus [30] = experiment: Minimal effective dose on rat for motility after intraperitoneal administration.; assay type: functional; conditions: ip, read-out: MED
Mus musculus [31] = experiment: Effective dose on mouse for motor coordination after intraperitoneal administration.; assay type: functional

CCN(CC)c1nn2c(-c3ccccc3)nnc2c2ccccc12
Ratio [1]: 0.9
Ki [2]: 0.041 µM
ED50 (Mus musculus [3]): > 100 mg/kg
LD50 [4]: 600 mg/kg

Nc1nn2c(-c3ccccc3)nnc2c2ccccc12
ED50 (Mus musculus [5]): ≥ 100 mg/kg
Ki [2]: 0.243 µM
LD50 [4]: 600 mg/kg

CCN(C)c1nn2c(-c3ccccc3)nnc2c2ccccc12
ED50 (Mus musculus [5]): ≥ 50 mg/kg
Ki [2]: 0.0144 µM
Ratio [6]: 1.1
LD50 [4]: 300 mg/kg

COCCN(CCOC)c1nn2c(-c3ccc(N(C)C)cc3)nnc2c2ccccc12
ED50 (Mus musculus [5]): 20 mg/kg
Ki [2]: 2.65 µM
LD50 [4]: 200 mg/kg

FC(F)(F)c1cccc(-c2nnc3c4ccccc4c(N4CCCC4)nn23)c1
ED50 (Mus musculus [5]): ≥ 100 mg/kg
Ki [2]: > 3 µM
LD50 [4]: 600 mg/kg

CCOc1cc(OCC)c(-c2nnc3c4ccccc4c(N4CCCC4)nn23)cc1OCC
Ki [2]: > 3 µM
ED50 (Mus musculus [3]): > 50 mg/kg
LD50 [4]: 300 mg/kg

c1ccc(-c2nnc3c4ccccc4c(N4CCCC4)nn23)cc1
Fallen/treated (Mus musculus [7]): 2
Fallen/treated (Mus musculus [8]): 4
Ki [2]: 0.0156 µM
ED50 (Mus musculus [3]): > 75 mg/kg
Ratio [6]: 1.1
LD50 [4]: 400 mg/kg

Cc1nnc2ccc(-c3cccc(C(F)(F)F)c3)nn12 [CI-218872]
ED50 (Mus musculus [9]): 30 mg/kg
ED50 (Mus musculus [10]): 10 mg/kg
ED50 (Mus musculus [11]): 30 mg/kg

COCCN(CCOC)c1nn2c(-c3ccc(OC(C)C)cc3)nnc2c2ccccc12
Ki [2]: 0.142 µM
ED50 (Mus musculus [3]): 20.7 mg/kg
minimal effective dose (Rattus norvegicus [12]): 10 mg/kg
Ratio [6]: 1.8
LD50 [4]: 600 mg/kg

COCCN(CCOC)c1nn2c(-c3ccc(OC)cc3)nnc2c2ccccc12
ED50 (Mus musculus [13]): 4 mg/kg
ED (Mus musculus [14]): 60 mg/kg
ED (Mus musculus [15]): 100 mg/kg
minimal effective dose (Mus musculus [16]): 300 mg/kg
minimal effective dose (Mus musculus [17]): 10 mg/kg
minimal effective dose (Rattus norvegicus [18]): 1000 mg/kg
ED50 (Rattus norvegicus [19]): 300 mg/kg
minimal effective dose (Rattus norvegicus [20]): 100 mg/kg
ED (Rattus norvegicus [21]): 600 mg/kg
ED50 (Mus musculus [10]): 60 mg/kg
Ki [2]: 0.0026 µM
ED (Rattus norvegicus [22]): 600 mg/kg
ED50 (Mus musculus [11]): 50 mg/kg
minimal effective dose (Mus musculus [23]): 6 mg/kg
CR2 (Rattus norvegicus [24]): 10 block/treat
ED (Rattus norvegicus [25]): 1000 mg/kg
minimal effective dose (Rattus norvegicus [26]): 300 mg/kg
CR2 (Rattus norvegicus [27]): 4 block/treat
ED50 (Mus musculus [3]): 6.2 mg/kg
minimal effective dose (Rattus norvegicus [12]): 3.5 mg/kg
Ratio [6]: 1.83
minimal effective dose (Mus musculus [28]): 6 mg/kg
ED50 (Mus musculus [29]): 50 mg/kg
minimal effective dose (Rattus norvegicus [30]): 300 mg/kg
ED (Mus musculus [31]): 60 mg/kg
LD50 [4]: 300 mg/kg

O=[N+]([O-])c1cc(-c2nnc3c4ccccc4c(N4CCCC4)nn23)ccc1Cl
Ki [2]: 0.908 µM
ED50 (Mus musculus [3]): > 50 mg/kg
LD50 [4]: 200 mg/kg

COc1cc(OC)c(-c2nnc3c4ccccc4c(N4CCCC4)nn23)cc1OC
Ki [2]: 1.93 µM
ED50 (Mus musculus [3]): > 50 mg/kg
LD50 [4]: 300 mg/kg

CC(C)Nc1nn2c(-c3ccccc3)nnc2c2ccccc12
Ki [2]: 0.306 µM
ED50 (Mus musculus [3]): > 75 mg/kg
LD50 [4]: 400 mg/kg

COCCN(CCOC)c1nn2c(-c3ccc(F)cc3)nnc2c2ccccc12
ED50 (Mus musculus [5]): 60.1 mg/kg
Ki [2]: 0.02 µM
Ratio [6]: 1.5
LD50 [4]: 600 mg/kg

CCNc1nn2c(-c3ccccc3)nnc2c2ccccc12
Ratio [1]: 0.9
Ki [2]: 0.0376 µM
ED50 (Mus musculus [3]): > 50 mg/kg
LD50 [4]: 200 mg/kg

CC(=O)Nc1ccc(-c2nnc3c4ccccc4c(N4CCCC4)nn23)cc1
ED50 (Mus musculus [5]): ≥ 100 mg/kg
Ki [2]: 0.036 µM
Ratio [6]: 1.1
LD50 [4]: 600 mg/kg

CCCCCOc1ccc(-c2nnc3c4ccccc4c(N4CCCC4)nn23)cc1OC
Ki [2]: > 3 µM
ED50 (Mus musculus [3]): > 50 mg/kg
LD50 [4]: 200 mg/kg

COCCN(CCOC)c1nn2c(-c3ccc(OC)c(C)c3)nnc2c2ccccc12
Ki [2]: 1.82 µM
ED50 (Mus musculus [3]): > 100 mg/kg
LD50 [4]: 400 mg/kg

c1ccc(CNc2nn3c(-c4ccccc4)nnc3c3ccccc23)cc1
Ki [2]: 0.243 µM
ED50 (Mus musculus [3]): > 75 mg/kg
LD50 [4]: 400 mg/kg

COCCN(CCOC)c1nn2c(-c3ccccc3)nnc2c2ccccc12
Ratio [1]: 1.6
Ki [2]: 0.066 µM
ED50 (Mus musculus [3]): 34.2 mg/kg
minimal effective dose (Rattus norvegicus [12]): 15 mg/kg
LD50 [4]: 200 mg/kg

CN(C)c1ccc(-c2nnc3c4ccccc4c(N4CCCC4)nn23)cc1
ED50 (Mus musculus [5]): ≥ 75 mg/kg
Ki [2]: 1.72 µM
LD50 [4]: 300 mg/kg

CN(C)c1ccc(-c2nnc3c4ccccc4c(N4CCCC4)nn23)c(Cl)c1
Ki [2]: 0.393 µM
ED50 (Mus musculus [3]): > 100 mg/kg
LD50 [4]: 600 mg/kg

N#Cc1ccc(-c2nnc3c4ccccc4c(N4CCCC4)nn23)cc1
ED50 (Mus musculus [5]): ≥ 100 mg/kg
Ki [2]: 0.102 µM
Ratio [6]: 1.1
LD50 [4]: 600 mg/kg

CN1CCN(c2nn3c(-c4ccccc4)nnc3c3ccccc23)CC1
Ki [2]: 0.0377 µM
ED50 (Mus musculus [3]): > 50 mg/kg
Ratio [6]: 0.9
LD50 [4]: 300 mg/kg
